Read-outs that look alike come from different tables or passages of the source.
Columns and labels:
[1] = test system: MCF7, HCT116 and K652 cell lines; assay: MTT cytotoxicity assay, average of three cell lines; type: cell-based; conditions: read-out: average IC50 of three cell lines
Experimental: (§1) The in vitro cytotoxicity of our compounds was determined using MTT assay. […] The results were analyzed using GraphPad Prism 5.0, and cytotoxicity was expressed as IC50 for three individual experiments.

[2] = test system: colorectal cancer (HCT116); assay: cells; conditions: Homo sapiens, HCT-116, 48 h, read-out: IC50 HCT116
Experimental: as §1

[3] = test system: chronic myelogenous leukaemia; assay: cells; conditions: K652, 48 h, read-out: IC50 K652
Experimental: as §1

breast cancer (MCF7) = assay: MTT cytotoxicity assay, MCF7; type: cell-based; conditions: Homo sapiens, MCF7, 48 h, read-out: IC50 MCF7
Experimental: as §1

CDK9 [4] = target: T1, CDK9 (Homo sapiens, UniProt P50750); assay: biochemical; conditions: biochemical assay; mean ± standard deviation of three individual experiments; read-out: CDK9 Inhibitory Activity IC50
T1 construct: purchased BPS Biosciences (San Diego, CA, USA) 79628
T1 sequence (P50750 whole entry): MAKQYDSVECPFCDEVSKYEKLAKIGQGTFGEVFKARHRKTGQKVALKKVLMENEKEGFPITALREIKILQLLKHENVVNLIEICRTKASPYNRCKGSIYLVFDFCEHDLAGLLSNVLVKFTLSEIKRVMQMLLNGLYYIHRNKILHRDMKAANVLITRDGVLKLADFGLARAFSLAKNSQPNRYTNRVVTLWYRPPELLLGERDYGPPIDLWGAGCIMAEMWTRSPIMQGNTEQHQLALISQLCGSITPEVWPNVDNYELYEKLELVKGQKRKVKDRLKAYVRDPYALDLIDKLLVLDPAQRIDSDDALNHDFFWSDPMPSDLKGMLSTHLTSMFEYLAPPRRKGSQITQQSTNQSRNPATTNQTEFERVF
T1 sequence (O60563 whole entry partner): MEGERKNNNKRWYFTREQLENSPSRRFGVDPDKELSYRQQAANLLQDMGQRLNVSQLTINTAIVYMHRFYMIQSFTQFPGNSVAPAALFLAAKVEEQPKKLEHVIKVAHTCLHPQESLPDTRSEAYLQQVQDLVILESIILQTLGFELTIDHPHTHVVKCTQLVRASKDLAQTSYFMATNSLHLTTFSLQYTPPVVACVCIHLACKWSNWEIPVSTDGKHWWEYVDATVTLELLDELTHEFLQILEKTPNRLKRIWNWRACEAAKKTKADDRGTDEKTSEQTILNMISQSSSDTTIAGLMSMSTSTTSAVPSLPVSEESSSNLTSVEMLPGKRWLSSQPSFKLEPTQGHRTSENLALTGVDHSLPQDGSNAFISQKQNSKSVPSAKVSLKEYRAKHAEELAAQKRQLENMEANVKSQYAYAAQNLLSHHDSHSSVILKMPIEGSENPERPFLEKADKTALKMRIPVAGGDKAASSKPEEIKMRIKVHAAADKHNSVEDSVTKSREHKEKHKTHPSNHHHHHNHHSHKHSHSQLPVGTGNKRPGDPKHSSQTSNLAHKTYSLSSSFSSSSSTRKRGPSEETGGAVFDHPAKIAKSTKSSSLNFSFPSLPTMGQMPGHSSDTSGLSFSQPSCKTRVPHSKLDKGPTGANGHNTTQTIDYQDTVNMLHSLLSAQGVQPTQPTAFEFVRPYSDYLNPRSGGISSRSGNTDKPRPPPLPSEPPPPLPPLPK
Experimental: In this study, all the newly synthesized compounds were assessed against CDK9 in a biochemical assay, and dinaciclib was used as a standard compound.
The luminescence was measured using a microplate reader. The results were analyzed using GraphPad Prism 5.0, and the kinase inhibitory activity was expressed as IC50 for three individual experiments. In the assay, dinaciclib was used as a positive control, and DMSO was used as negative control.

normal cells FHC = assay: cells; conditions: for average selectivity over three cancer cells: normal cells FHC vs MCF7, HCT116, K652; for IC50: read-out: FHC IC50
Experimental: as §1

human coronavirus 229E = assay: Cytopathic effect (CPE) inhibition assay, crystal violet method; type: cell-based; conditions: read-out: IC50 (229E)
Experimental: The anti-coronaviral activity of the new compounds was assessed using a cytopathic effect (CPE) inhibition assay against human coronavirus 229E. Ribavirin (well-established antiviral agent) was used as standard in this assay.

[5] = Cytotoxicity on target cells in the antiviral assay (crystal violet)
Experimental: The results were analyzed using GraphPad Prism 5.0, and cytotoxicity was expressed as IC50 for three individual experiments. In the assay, ribavirin was used as a positive control, and DMSO was used as a negative control.

CDK9 [6] = target: T1, CDK9; conditions: identified by virtual screening from natural resources; cited from earlier work

| SMILES | IC50 [1] [µM] | IC50 [2] [µM] | IC50 [3] [µM] | IC50 (breast cancer (MCF7)) [µM] | IC50 (CDK9 [4]) [nM] | average selectivity over three cancer cells (normal cells FHC) [fold] | IC50 (normal cells FHC) [µM] | IC50 (human coronavirus 229E) [µM] | CC50 [5] [µM] | melting point [°C] | IC50 (CDK9 [6]) [µM] |
| --- | --- | --- | --- | --- | --- | --- | --- | --- | --- | --- | --- |
| CC(C)(C)Nc1c(-c2ccccc2)nc2cnccn12 [Compound 1a, N-(Tert-butyl)-2-phenylimidazo[1,2-a]pyrazin-3-amine] | 437 | 597 ± 8.25 | 310 ± 4.49 | 405 ± 5.05 | 1670 ± 25 |  |  |  |  |  |  |
| c1ccc(-c2nc3cnccn3c2NC2CCCCC2)cc1 [Compound 1b, N-Cyclohexyl-2-phenylimidazo[1,2-a]pyrazin-3-amine] | 18.2 | 1.43 ± 0.02 | 50.3 ± 0.8 | 3.01 ± 0.04 | 250 ± 4 | 43 | 123 ± 19.1 | 146 | 299 |  |  |
| c1ccc(CNc2c(-c3ccccc3)nc3cnccn23)cc1 [Compound 1c, N-Benzyl-2-phenylimidazo[1,2-a]pyrazin-3-amine] |  | 59.3 ± 5.05 | 88.6 ± 8.25 | 99 ± 1.39 | 1010 ± 17 |  |  |  |  |  |  |
| COc1ccc(Nc2c(-c3ccccc3)nc3cnccn23)cc1 [Compound 1d, N-(4-Methoxyphenyl)-2-phenylimidazo[1,2-a]pyrazin-3-amine] |  | 75.2 ± 1.24 | 77.4 ± 1.34 | 244 ± 3.62 | 1040 ± 19 |  |  |  |  |  |  |
| CC(C)(C)Nc1c(-c2ccc(O)c(O)c2)nc2cnccn12 [Compound 2a, 4-(3-(Tert-butylamino)imidazo[1,2-a]pyrazin-2-yl)benzene-1,2-diol] |  | 35.9 ± 0.56 | 22.8 ± 0.37 | 76.8 ± 1.08 | 1140 ± 19 |  |  |  |  | 270 to 272 |  |
| Oc1ccc(-c2nc3cnccn3c2NC2CCCCC2)cc1O [Compound 2b, 4-(3-(Cyclohexylamino)imidazo[1,2-a]pyrazin-2-yl)benzene-1,2-diol] |  | 105 ± 1.78 | 54.2 ± 0.96 | 119 ± 1.82 | 890 ± 16 |  |  |  |  |  |  |
| Oc1ccc(-c2nc3cnccn3c2NCc2ccccc2)cc1O [Compound 2c, 4-(3-(Benzylamino)imidazo[1,2-a]pyrazin-2-yl)benzene-1,2-diol] |  | 59.9 ± 1.04 | 88.6 ± 1.09 | 39.7 ± 0.62 | 310 ± 6 |  |  |  |  |  |  |
| COc1ccc(Nc2c(-c3ccc(O)c(O)c3)nc3cnccn23)cc1 [Compound 2d, 4-(3-((4-Methoxyphenyl)amino)imidazo[1,2-a]pyrazin-2-yl)benzene-1,2-diol] | 126 | 162 ± 2.41 | 136 ± 2.59 | 80.4 ± 1.31 | 2030 ± 40 |  |  |  |  | 150 to 152 |  |
| CC(C)(C)Nc1c(-c2ccncc2)nc2cnccn12 [Compound 3a, N-(Tert-butyl)-2-(pyridin-4-yl)imidazo[1,2-a]pyrazin-3-amine] | 17.7 | 2.69 ± 0.04 | 46 ± 0.67 | 4.3 ± 0.5 | 260 ± 4 | 41 | 196 ± 2.79 | 394 | 940 |  |  |
| c1cc(-c2nc3cnccn3c2NC2CCCCC2)ccn1 [Compound 3b, N-Cyclohexyl-2-(pyridin-4-yl)imidazo[1,2-a]pyrazin-3-amine] |  | 8.96 ± 0.14 | 67.8 ± 1.08 | 31.7 ± 0.44 | 410 ± 7 |  |  | 57 | 407 |  |  |
| c1ccc(CNc2c(-c3ccncc3)nc3cnccn23)cc1 [Compound 3c, N-Benzyl-2-(pyridin-4-yl)imidazo[1,2-a]pyrazin-3-amine] | 6.66 | 7.96 ± 0.12 | 4.45 ± 0.06 | 8.59 ± 0.12 | 160 ± 3 | 15 | 97.2 ± 1.58 | 379 | 472 |  |  |
| COc1ccc(Nc2c(-c3ccncc3)nc3cnccn23)cc1 [Compound 3d, N-(4-Methoxyphenyl)-2-(pyridin-4-yl)imidazo[1,2-a]pyrazin-3-amine] |  | 27.9 ± 1.88 | 46.6 ± 0.48 | 118 ± 1.17 | 800 ± 14 |  |  |  |  |  |  |
| CC(C)(C)Nc1c(-c2ccsc2)nc2cnccn12 [Compound 4a, N-(Tert-butyl)-2-(thiophen-3-yl)imidazo[1,2-a]pyrazin-3-amine] |  | 61.31 ± 0.12 | 12.77 ± 0.06 | 25.4 ± 0.32 | 730 ± 11 | 3.5 | 76.1 ± 1.11 |  |  |  |  |
| c1cn2c(NC3CCCCC3)c(-c3ccsc3)nc2cn1 [Compound 4b, N-Cyclohexyl-2-(thiophen-3-yl)imidazo[1,2-a]pyrazin-3-amine] |  | 27.9 ± 0.43 | 46.6 ± 0.76 | 181 ± 2.63 | 1320 ± 6 |  |  |  |  | 170 to 172 |  |
| c1ccc(CNc2c(-c3ccsc3)nc3cnccn23)cc1 [Compound 4c, N-Benzyl-2-(thiophen-3-yl)imidazo[1,2-a]pyrazin-3-amine] |  | 80.6 ± 1.26 | 69.2 ± 3.89 | 55.8 ± 0.8 | 710 ± 12 |  |  |  |  |  |  |
| COc1ccc(Nc2c(-c3ccsc3)nc3cnccn23)cc1 [Compound 4d, N-(4-Methoxyphenyl)-2-(thiophen-3-yl)imidazo[1,2-a]pyrazin-3-amine] |  | 115 ± 1.93 | 87.2 ± 1.53 | 141 ± 2.13 | 3160 ± 58 |  |  |  |  |  |  |
| Oc1ccc(-c2nc3cnccn3c2NCc2cccs2)cc1O [Compound 10] |  |  |  |  |  |  |  |  |  |  | 5.12 |
| NC(=O)c1ncn([C@@H]2O[C@H](CO)[C@@H](O)[C@H]2O)n1 [Ribavirin, reference compound] |  |  |  |  |  |  |  | 114 | 160 |  |  |
| CN[C@@H]1C[C@H]2O[C@@](C)([C@@H]1OC)n1c3ccccc3c3c4c(c5c6ccccc6n2c5c31)C(=O)NC4 [Staurosporine, reference compound] |  |  |  | 18.4 ± 0.4 |  |  |  |  |  |  |  |
